Read-outs that look alike come from different tables or passages of the source.

Common to all, as to type: in vivo
The subject of one assay is wild oats (Avena fatua). Briefly: Preemergence herbicidal activity. The conditions noted are these: pre-emergence, 504 h. In outline: (§1)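 Visual injury score, 0-100 percent (0 = no injury, 100 = complete kill or no germination), taken 3 weeks after treatment relative to untreated plants. Test solutions in water/Tween 155 with acetone/DMSO carrier were sprayed onto the soil of freshly seeded pots. Greenhouse, 15 hr light.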

Assay [1] has as its system barnyardgrass (Echinochloa crus-galli). Briefly: Preemergence herbicidal activity. The conditions noted are these: pre-emergence, 504 h. In outline:
as §1

For assay [2], the system named is Rox orange sorghum (sorghum bicolor). Briefly: Preemergence herbicidal activity. Conditions: pre-emergence, 504 h. In outline: as §1
Assay [3] concerns lambsquarters (Chenopodium album). Put plainly: Preemergence herbicidal activity. The conditions noted are these: pre-emergence, 504 h. The method, boiled down: as §1
Assay [4] concerns blackgrass (Alopecurus myosuroides). Put plainly: Preemergence herbicidal activity. The conditions noted are these: pre-emergence, 504 h. In outline:
as §1

The subject of assay [5] is giant foxtail (Setaria faberi). Briefly: Preemergence herbicidal activity. The conditions noted are these: pre-emergence, 504 h. In outline: as §1
The subject of assay [6] is cocklebur (Xanthium strumarium). Briefly: Preemergence herbicidal activity. Conditions: pre-emergence, 504 h. In outline: as §1
For assay [7], the system named is wild poinsettia (Euphorbia heterophylla). Briefly: Preemergence herbicidal activity. The conditions noted are these: pre-emergence, 504 h. In outline:
as §1

In assay [8] the test system is crabgrass (Digitaria sanguinalis). Put plainly: Preemergence herbicidal activity. The conditions noted are these: pre-emergence, 504 h. In outline:
as §1

The subject of assay [9] is Canada thistle (Cirsium arvense). Put plainly: Range & Pasture Crop Testing (postemergence track sprayer). The conditions noted are these: for GR80 CIRAR: Table 10, clover pasture, postemergence. On the procedure: (§2) By applying the well-accepted probit analysis as described by J. Berkson in Journal of the […], 48, 565 (1953) and by D. Finney in “Probit Analysis” Cambridge University Press (1952), the above data can be used to calculate GR50 and GR80 values, which are defined as growth reduction factors that correspond to the effective dose of herbicide required to kill or control 50 percent or 80 percent, respectively, of a target plant.
(§3) Rates are calculated based upon 5 doses being applied. The high rate (X), followed by serial dilutions of 1/2×, 1/4×, 1/8× and 1/16×. Compound requirements are based upon the 187 L/ha carrier volume, specifications of the delivery system (Mandel track sprayer) and generating 24 mL of technical spray material to allow for the dilutions and overage in the sprayer. [formula]
(§4) All technical materials were formulated in 97:3 (acetone:DMSO) with 0.25% X-77. The total volume of solvent is maintained at less than 7%. An overhead Mandel track sprayer calibrated to deliver 187 L/ha was used for all treatment applications (postemergence). Picloram was included as a comparison treatment.
(§5) Solutions were applied with a mechanized track-sprayer at the following settings:
(§6) Spray height: 17 inches above top of plants
(§7) This provides an application volume of 187 L/ha.
(§8) Percent weed control (burn down) was evaluated 3 weeks after treatment. Visual control on a 0-100 linear scale was used, with 0 representing no control and 100 representing total control. Burn down ratings were taken for annual and perennial weed species.

Assay [10] deals with field bindweed (Convolvulus arvensis). The description is as above. Conditions: for GR80 CONAR: Table 10, clover pasture, postemergence. On the procedure: as §2, §3, §4, §5, §6, §7, §8
[11] abbreviates: Table 7, rate 35 g/Ha, after 3 weeks, read-out: PREEMERGENCE HERBICIDAL ACTIVITY % CONTROL AVEFA.
Where [12] appears, read: Table 7, rate 35 g/Ha, after 3 weeks, read-out: PREEMERGENCE HERBICIDAL ACTIVITY % CONTROL ECHCG.
Where [13] appears, read: Table 7, rate 35 g/Ha, after 3 weeks, read-out: PREEMERGENCE HERBICIDAL ACTIVITY % CONTROL SORBI.
The mark [14] stands for this setting: Table 7, rate 35 g/Ha, after 3 weeks, read-out: PREEMERGENCE HERBICIDAL ACTIVITY % CONTROL CHEAL.
The mark [15] stands for this setting: Table 7, rate 35 g/Ha, after 3 weeks, read-out: PREEMERGENCE HERBICIDAL ACTIVITY % CONTROL SETFA.
[16] abbreviates: Table 7, rate 35 g/Ha, after 3 weeks, read-out: PREEMERGENCE HERBICIDAL ACTIVITY % CONTROL XANST.
Where [17] appears, read: Table 7, rate 35 g/Ha, after 3 weeks, read-out: PREEMERGENCE HERBICIDAL ACTIVITY % CONTROL EPHHL.
The mark [18] stands for this setting: Table 7, rate 35 g/Ha, after 3 weeks, read-out: PREEMERGENCE HERBICIDAL ACTIVITY % CONTROL DIGSA.
The mark [19] stands for this setting: Table 7, rate 35 g/Ha, after 3 weeks, read-out: PREEMERGENCE HERBICIDAL ACTIVITY % CONTROL ALOMY.

On to `Nc1cc(Cl)nc(C(=O)O)c1Cl` [Compound 1, 4-Amino-3,6-dichloropyridine-2-carboxylic acid], for which the inhibition at 35 g/ha in the assay with wild oats (Avena fatua) (read-out: PR[…] % CONTROL AVEFA, Table 7, rate 35 g/Ha, after 3 weeks) turned out to be 37%; in assay [1] (read-out: PR[…] % CONTROL ECHCG, Table 7, rate 35 g/Ha, after 3 weeks), 17%; in assay [2] (read-out: PR[…] % CONTROL SORBI, Table 7, rate 35 g/Ha, after 3 weeks), 60%; in assay [3] (read-out: PR[…] % CONTROL CHEAL, Table 7, rate 35 g/Ha, after 3 weeks), 99%; in [4] (read-out: PR[…] % CONTROL ALOMY, Table 7, rate 35 g/Ha, after 3 weeks) it was 36%; in [5] (read-out: PR[…] % CONTROL SETFA, Table 7, rate 35 g/Ha, after 3 weeks) it was 40%. For the same compound, the inhibition at 35 g/ha in [6] (read-out: PR[…] % CONTROL XANST, Table 7, rate 35 g/Ha, after 3 weeks) amounted to 99%; in assay [7] (read-out: PR[…] % CONTROL EPHHL, Table 7, rate 35 g/Ha, after 3 weeks) it was 62%; in assay [8] (read-out: PR[…] % CONTROL DIGSA, Table 7, rate 35 g/Ha, after 3 weeks) it was 20%. The “Post-emergent GR80 CIRAR” value in [9] (Table 8, salts of Compound 1, 3 week evaluation) is 47 g/Ha. The “Post-emergent GR80 CONAR” value in assay [10] (Table 8, salts of Compound 1, dose for 80 percent control) was 59 g/Ha.

As for `COC(=O)c1nc(Cl)cc(N)c1Cl` [Compound 3, methyl 4-amino-3,6-dichloropyridine-2-carboxylate], the inhibition at 35 g/ha with wild oats (Avena fatua) (setting [11]) was 10%; in assay [1] (setting [12]), 20%; in assay [2] (setting [13]), 30%; in assay [3] (setting [14]), 100%; in assay [5] (setting [15]), 40%; in assay [6] (setting [16]), 90%. Further, the inhibition at 35 g/ha in assay [7] (setting [17]) is 20%; in assay [8] (setting [18]) it was 40%. The “Post-emergent Evaluation - % control CIRAR” value in [9] (Table 9, rate 70 g/Ha, 3 weeks after treatment) is on record as 90%. Also, the “GR80 CIRAR” value in assay [9] was below 17.5 g/ha. Also, in [10], the “GR80 CONAR” value was 127.7 g/ha.

On to `CCOC(=O)c1nc(Cl)cc(N)c1Cl` [Compound 4, ethyl 4-amino-3,6-dichloropyridine-2-carboxylate], for which the “GR80 CIRAR” value in assay [9] is on record as below 17.5 g/ha. For the same compound, the “GR80 CONAR” value in [10] turned out to be 59 g/ha.

For the compound `Nc1cc(Br)nc(C(=O)O)c1Cl` [Compound 14, 4-Amino-6-bromo-3-chloropyridine-2-carboxylic acid], the inhibition at 35 g/ha is 40% with wild oats (Avena fatua) (setting [11]); 40% in assay [1] (setting [12]); 50% in [2] (setting [13]); 100% in assay [3] (setting [14]); 60% in assay [4] (setting [19]); 98% in assay [5] (setting [15]). Besides, the figures for the inhibition at 35 g/ha in assay [6] (setting [16]), in [7] (setting [17]) and in assay [8] (setting [18]) were 100%, 70% and 80%, respectively.

Turning to `COc1c(C(=O)O)nc(Br)c(Cl)c1N` [Compound 42, 4-Amino-6-bromo-5-chloro-3-methoxypyridine-2-carboxylic acid], the inhibition at 35 g/ha with wild oats (Avena fatua) (setting [11]) turned out to be 30%; in assay [1] (setting [12]) it was 30%; in assay [2] (setting [13]), 20%; in assay [3] (setting [14]) it was 90%; in assay [4] (setting [19]), 30%; in [5] (setting [15]), 30%. The values for the inhibition at 35 g/ha in assay [6] (setting [16]), in assay [7] (setting [17]) and in [8] (setting [18]) were 98%, 40% and 30%, respectively.
